One may read the Kd as the concentration at which binding is half-saturated.

The source made the active and inactive calls. No rule for the calls is given here.

For the test, the target named is Ubiquitin-conjugating enzyme E2 N (Homo sapiens) (UniProt P61088). Nature of the test: NMR detection of UBE2N ligand binding – biophysical, purified protein (AID 1552). Particulars: NMR binding to purified UBE2N.
Sequence of Ubiquitin-conjugating enzyme E2 N (Homo sapiens) (P61088 whole entry, looked up): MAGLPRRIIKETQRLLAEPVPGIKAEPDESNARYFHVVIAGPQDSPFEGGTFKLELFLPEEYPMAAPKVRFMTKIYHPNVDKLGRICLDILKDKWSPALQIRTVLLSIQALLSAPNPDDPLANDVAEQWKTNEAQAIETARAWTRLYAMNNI
As for `C=C(C)[C@H]1Cc2c(ccc3c2O[C@@H]2COc4cc(OC)c(OC)cc4[C@@H]2C3=O)O1`, the Kd is > 4 mM (inactive).
On to `Cc1cc(=O)[nH]c(NCC(=O)O)n1`, for which the Kd was > 4 mM (inactive).
`NC(=O)CN1CCCCCC1=O`: the Kd is > 4 mM (inactive).
Regarding `CCc1c(C)n([O-])c2c([n+]1=O)CCC2`, the Kd was > 4 mM (inactive).
Take `Cn1c(SCC(N)=O)nc2c1c(=O)[nH]c(=O)n2C`: the Kd is > 4 mM (inactive).
`CNC(=O)C1CCCN(S(C)(=O)=O)C1` (stereo not given): the Kd was > 4 mM (inactive).
With `O=C(NC1CC1)c1ccccc1[N+](=O)[O-]`, the Kd was > 4 mM (inactive).
Turning to `NC(=O)CC(=O)NC12CC3CC(CC(C3)C1)C2`, the Kd was > 4 mM (inactive).
Regarding `CCCS(=O)(=O)N1CCN(c2ccccn2)CC1`, the Kd is > 4 mM (inactive).
Consider `COCC(=O)/C=C1\Sc2ccccc2N1C`, for which the Kd is > 4 mM (inactive).
`O=C(Nc1ccc2c(c1)OCO2)c1ccc(=O)[nH]n1`: the Kd is > 4 mM (inactive).
As for `COC(=O)c1ccc(Cl)c(NC(C)=O)c1`, the Kd is > 4 mM (inactive).
With `Nc1ccc(OC(F)(F)F)cc1`, the Kd was > 4 mM (inactive).
To `COc1ccc(-c2c(C)n([O-])c(C)c(C)[n+]2=O)cc1` belongs > 4 mM (inactive); to `CCOC(=O)c1cc(C)n(-n2cnnc2)c1C`, > 4 mM (inactive); to `COc1cc(N)ncn1`, > 4 mM (inactive).
For the compound `O=C(O)C1=C[C@@H](O)[C@@H](O)[C@H](O)C1`, the Kd was > 4 mM (inactive).
The same measure for `Nc1cccc2cccnc12`: > 4 mM (inactive); for `COc1cccc(/C=C/C(=O)O)c1C(C)C`: > 4 mM (inactive).
Take `O=C(O)c1ncoc1-c1ccccc1`: the Kd is > 4 mM (inactive).
`O=C(C1CCNCC1)N1CCCCCC1`: the Kd was > 4 mM (inactive).
As for `CCCCn1c(S(=O)(=O)O)nc2ccccc21`, the Kd was > 4 mM (inactive).
The same measure for `O=C(Nc1ccccc1)c1cnc2n(c1=O)CCS2`: > 4 mM (inactive); for `CCOC(=O)c1c(C)[nH]c2ccc(O)cc12`: > 4 mM (inactive); for `Cc1ccccc1-n1c(-c2ccncc2)n[nH]c1=S`: > 4 mM (inactive).
To `CN1CCN(c2cc(=O)n(C)c(=O)[nH]2)CC1` belongs > 4 mM (inactive); to `OC1CCCN(Cc2ccccc2)C1` (stereo not given), > 4 mM (inactive).
Take `CC1NC(C(=O)O)Cc2c1[nH]c1ccccc21` (stereo not given): the Kd was > 4 mM (inactive).
Consider `O=C1C2C3C=CC(C3)C2C(=O)N1CCCO` (stereo not given), for which the Kd was > 4 mM (inactive).
As to `C(=N\c1nccs1)/c1cccnc1`, the Kd was > 4 mM (inactive).
For `Cc1ccc(CNc2ccc(O)cc2)cc1`, the Kd is > 4 mM (inactive).
For the compound `O=P1(O)c2ccccc2Nc2ccccc21`, the Kd was > 4 mM (inactive).
On to `c1ccc(CN2CCC3(CC2)Nc2ccccc2CO3)cc1`, for which the Kd was > 4 mM (inactive).
As for `CC(=O)O[C@H]1CC[C@@]2(C)C(C[C@@H](OC(C)=O)[C@@]3(C)C4=CC(=O)O[C@@H](c5ccoc5)[C@]4(C)CCC23)C1(C)C` (stereo not given in full), the Kd is > 4 mM (inactive).
Regarding `CNC(=O)Nc1cccc(C(F)(F)F)c1`, the Kd was > 4 mM (inactive).
Consider `CC(=O)O[C@H]1C[C@@H](OC(C)=O)C(C)(C)C2C[C@@H](OC(C)=O)[C@]3(C)C(CC[C@@]4(C)[C@H](c5ccoc5)C(=O)[C@H]5O[C@]543)[C@]21C` (stereo not given in full), for which the Kd is > 4 mM (inactive).
For the compound `O=C1CCCN1c1ccc(S(=O)O)cc1`, the Kd was > 4 mM (inactive).
Take `CC(C)=CC(=O)Nc1ccccc1Br`: the Kd is > 4 mM (inactive).
The same measure for `NC(=O)c1ccsc1N`: > 4 mM (inactive).
To `O=C1CCc2ccccc2CN1` belongs > 4 mM (inactive); to `Cn1c(CO)nc2cc(N)ccc21`, > 4 mM (inactive).
To `O=C1Nc2ccccc2C12OCCO2` belongs > 4 mM (inactive); to `Cc1c(C)[n+](=O)c(-c2cccs2)c(C)n1[O-]`, > 4 mM (inactive).
Consider `Cc1c(C(=O)Nc2cnccn2)oc2ccccc12`, for which the Kd is > 4 mM (inactive).
Consider `COc1ccc(C2CC(=O)c3ccc(OC)cc3O2)cc1` (stereo not given), for which the Kd was > 4 mM (inactive).
The same measure for `O=C(Nc1ccccc1F)c1ccncc1`: > 4 mM (inactive).
For the compound `O=C(O)c1onc2ccccc12`, the Kd is > 4 mM (inactive).
Consider `Cc1c(C(=O)Nc2ccccc2)sc(N)c1C(N)=O`, for which the Kd is > 4 mM (inactive).
In the case of `OCc1sccc1-n1cccc1`, the Kd is > 4 mM (inactive).
The same measure for `CC1=CCCC2C1(C)CCC(C)C2(C)CC/C(C)=C/C[n+]1cn(C)c2c(N)ncnc21` (stereo not given): > 4 mM (inactive); for `CCc1cccc(C)c1NC(=O)c1cc(C)oc1C`: > 4 mM (inactive).
As for `O=C(c1ccncc1)N1CCN(C(=O)c2ccco2)CC1`, the Kd was > 4 mM (inactive).
To `Nc1nc(-c2ccccc2)cc(=O)[nH]1` belongs > 4 mM (inactive).
For the compound `COc1ccc2c3c([nH]c2c1)C(C)=NCC3`, the Kd was > 4 mM (inactive).
On to `Cc1nc2ccccc2c(=O)n1/N=C/c1ccco1`, for which the Kd is > 4 mM (inactive).
On to `Cc1ccc2nc(NC(=O)CN3CCOCC3)sc2c1`, for which the Kd is > 4 mM (inactive).
Consider `NC(=O)Cc1nc2ccccc2[nH]1`, for which the Kd is > 4 mM (inactive).
On to `O=C(O)c1ccc(Nc2nncc(=O)[nH]2)cc1`, for which the Kd was > 4 mM (inactive).
On to `O=c1c[n+]([O-])c2ccccc2n1OCc1ccccc1`, for which the Kd is > 4 mM (inactive).
Consider `CN(C(=O)NC1CCS(=O)(=O)C1)C1CCCCC1` (stereo not given), for which the Kd is > 4 mM (inactive).
As for `CCN1CCc2c(sc(N)c2C#N)C1`, the Kd was > 4 mM (inactive).
The same measure for `COC(=O)[C@]1(C)CCC[C@]2(C)c3ccc(C(C)C)cc3C(=O)CC12` (stereo not given in full): > 4 mM (inactive); for `CC(=O)Nc1cc(C(F)(F)F)ccc1N1CCOCC1`: > 4 mM (inactive).
To `O=C(O)c1cnn2ccccc12` belongs > 4 mM (inactive); to `Fc1cccc(F)c1CN1CCN(c2ncccn2)CC1`, > 4 mM (inactive).
As to `CC1Cc2nc(SCC(N)=O)n(C)c(=O)c2S1` (stereo not given), the Kd is > 4 mM (inactive).
With `Cc1sc2nc(NCCO)[nH]c(=O)c2c1C`, the Kd was > 4 mM (inactive).
On to `NCCCCNCCCN`, for which the Kd is > 4 mM (inactive).
`Nc1nc2ncc(=O)[nH]c2c(=O)[nH]1`: the Kd was > 4 mM (inactive).
Consider `N#CCSc1nc2ccccc2c(=O)n1-c1ccccc1`, for which the Kd was > 4 mM (inactive).
As for `COc1ccc(Cl)cc1-c1n[nH]c(=S)n1C`, the Kd was > 4 mM (inactive).
With `COc1cc2nc(N3CCNCC3)nc(N)c2cc1OC`, the Kd was > 4 mM (inactive).
The same measure for `COc1ccc(NC(=O)C(N)=O)cc1Cl`: > 4 mM (inactive); for `COC(=O)c1ccc(/C=C2/NC(=S)NC2=O)cc1`: > 4 mM (inactive).
`Cc1cc(NC(=O)c2cccc(N3C(=O)CCC3=O)c2)no1`: the Kd was > 4 mM (inactive).
The same measure for `NC(=O)C1CCN(CN2C(=O)c3ccccc3C2=O)CC1`: > 4 mM (inactive); for `CC(C1OC(C)(C)C(O)C1O)[C@@H]1CC[C@]2(C)C3=CCC4C(C)(C)C(=O)CC[C@]4(C)C3CC[C@@]12C` (stereo not given in full): > 4 mM (inactive).
On to `Cc1cc(C)cc(C(=O)n2cnnc2N)c1`, for which the Kd was > 4 mM (inactive).
Turning to `S=c1nc(C2CC2)[nH]c2ccccc12`, the Kd was > 4 mM (inactive).
To `S=C(NCC1CCCO1)NC1CC1` (stereo not given) belongs > 4 mM (inactive); to `NNc1ncnc2sccc12`, > 4 mM (inactive).
Take `CC(=O)Nc1ccc(C(=O)NC2CCSC2=O)cc1` (stereo not given): the Kd was > 4 mM (inactive).
Consider `CC(=O)c1c(O)n(C)c(=S)n(C)c1=O`, for which the Kd is > 4 mM (inactive).
On to `COc1cc(O)c(C(C)=O)c(OC)c1`, for which the Kd was > 4 mM (inactive).
The same measure for `Cn1c(-c2ccccc2F)n[nH]c1=S`: > 4 mM (inactive); for `C=C1CCC2C(CC2(C)C)C(=C)CC/C1=N/O` (stereo not given): > 4 mM (inactive); for `Cn1cnnc1Sc1ncnc(N)c1[N+](=O)[O-]`: > 4 mM (inactive).
`CC(=O)Nc1ccc(S(N)(=O)=O)cc1`: the Kd was > 4 mM (inactive).
Turning to `Cc1nc2nc(Cc3ccccc3)nn2c(C)c1Cl`, the Kd is > 4 mM (inactive).
Regarding `COc1ccc(-c2cc(=O)c3c(O)c(OC)c(O[C@H]4O[C@H](CO[C@@H]5O[C@@H](C)[C@H](O)[C@@H](O)[C@H]5O)[C@@H](O)[C@H](O)[C@H]4O)cc3o2)cc1`, the Kd is > 4 mM (inactive).
In the case of `Cc1occc1C(=O)Nc1ccc2c(c1)OCO2`, the Kd was > 4 mM (inactive).
The same measure for `O=C(O)c1ccc2nsnc2c1`: > 4 mM (inactive); for `Cc1cc(C(=O)NCc2cccnc2)no1`: > 4 mM (inactive); for `CC(C)=CCOc1c2occc2cc2ccc(=O)oc12`: > 4 mM (inactive).
Regarding `COc1cccc(O)c1O`, the Kd was > 4 mM (inactive).
As for `Cn1cc(C(=O)N/N=C/c2ccccc2)ccc1=O`, the Kd is > 4 mM (inactive).
On to `Nc1ccc(S(=O)(=O)Nc2nccs2)cc1`, for which the Kd is > 4 mM (inactive).
Turning to `Cc1ccsc1/C=c1\sc2ncnn2c1=O`, the Kd was > 4 mM (inactive).
For the compound `O=C(Nc1ccc2c(c1)OCO2)c1cccs1`, the Kd was > 4 mM (inactive).
On to `CCOC(=O)c1c(C)cc(OC)cc1O`, for which the Kd was > 4 mM (inactive).
The same measure for `Cn1cnnc1SCCCNC(=O)Nc1ncccn1`: > 4 mM (inactive); for `CN(C)S(=O)(=O)c1cccc(N)c1`: > 4 mM (inactive).
The same measure for `O=C(NC12CC3CC(CC(C3)C1)C2)c1cnccn1`: > 4 mM (inactive).
`CCc1noc(C)c1C(=O)Nc1ncc(C)s1`: the Kd is > 4 mM (inactive).
The same measure for `O=C1CC(=O)N(c2ccccc2)C(=O)N1`: > 4 mM (inactive).

These data come from PubChem BioAssay AID1552 (Sanford-Burnham Center for Chemical Genomics, 2009).
